Experimental data from US20250230193A1, “CYCLIC COMPOUND HAVING SELECTIVE KRAS INHIBITORY EFFECT ON HRAS AND NRAS” (CHUGAI SEIYAKU KABUSHIKI KAISHA, priority 2022, published 2025).

Tests used:
[1] = target: GDP-bound HRAS wild-type protein (Homo sapiens, UniProt P01112); assay: Binding to HRAS by surface plasmon resonance (SPR), Single Cycle Kinetics; conditions: SPR; KD ratio class
[2] = target: GDP-bound NRAS wild-type protein (Homo sapiens, UniProt P01111); assay: Binding to NRAS by surface plasmon resonance (SPR), Single Cycle Kinetics; conditions: SPR; KD ratio class
[3] = tested on: human lung cancer strain NCI-H441; assay: cells; conditions: NCI-H441, 96 h, read-out: NCI-H441 IC50 (nM)

Sequence of GDP-bound HRAS wild-type protein (P01112 whole entry): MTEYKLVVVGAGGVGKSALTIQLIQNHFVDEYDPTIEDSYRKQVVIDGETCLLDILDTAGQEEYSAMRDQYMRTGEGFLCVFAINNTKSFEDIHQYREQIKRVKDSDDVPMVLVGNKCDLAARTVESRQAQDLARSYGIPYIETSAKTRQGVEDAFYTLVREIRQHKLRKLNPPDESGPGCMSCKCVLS
Sequence of GDP-bound NRAS wild-type protein (P01111 whole entry): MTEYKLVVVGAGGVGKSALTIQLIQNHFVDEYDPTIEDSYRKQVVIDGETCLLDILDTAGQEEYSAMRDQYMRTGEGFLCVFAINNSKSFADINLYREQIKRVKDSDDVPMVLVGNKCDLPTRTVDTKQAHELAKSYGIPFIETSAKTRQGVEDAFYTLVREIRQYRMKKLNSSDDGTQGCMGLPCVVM

IC50 [3] [nM]	Structure (SMILES)	HRAS/KRAS (ratio of KD value for GDP-bound HRAS wild-type protein to KD value for KRAS) [1]	NRAS/KRAS (ratio of KD value for GDP-bound NRAS wild-type protein to KD value for KRAS) [2]
102	CCO[C@@H]1C[C@H]2C(=O)NC3(CCC3)C(=O)N(C)[C@@H](C3CCCC3)C(=O)N(C)[C@H](C(=O)N(C)C)CC(=O)N(C)[C@@H](CC3CC3)C(=O)N[C@@H]([C@@H](C)CC)C(=O)N(C)CC(=O)N(C)[C@H]3C/C=C\CCN(C3=O)[C@@H](Cc3ccc(F)cc3)C(=O)N(C)CC(=O)N[C@@H](CCc3ccc(Cl)c(Cl)c3)C(=O)N2C1 [PP1478]	A (a compound having 10 or more and less than 20 is denoted as A)	A (a compound having 10 or more and less than 20 is denoted as A)
10.9	C#CC[C@H]1C(=O)N[C@@H]([C@@H](C)CC)C(=O)N(C)CC(=O)N(C)[C@H]2CC[C@@H](C)CN(C2=O)[C@@H](Cc2ccc(C(F)(F)F)cc2)C(=O)N(C)CC(=O)N[C@@H](CCc2ccc(C(F)(F)F)c(Cl)c2)C(=O)N2CCC[C@H]2C(=O)NC2(CCCC2)C(=O)N(C)[C@@H](C2CCCC2)C(=O)N(C)[C@H](C(=O)N(C)C)CC(=O)N1C [PP1340]	B (a compound having 3 or more and less than 10 is denoted as B)	B (a compound having 3 or more and less than 10 is denoted as B)
58.8	CCO[C@@H]1C[C@H]2C(=O)NC3(CCC3)C(=O)N(C)[C@@H](C(CC)CC)C(=O)N(C)[C@H](C(=O)N3CCOCC3)CC(=O)N(C)[C@@H](CC)C(=O)N[C@@H]([C@@H](C)CC)C(=O)N(C)CC(=O)N(C)[C@H]3C/C=C\CCN(C3=O)[C@@H](Cc3ccc(C(F)(F)F)cc3)C(=O)N(C)CC(=O)N[C@@H](CCc3cc(F)c(C(F)(F)F)c(F)c3)C(=O)N2C1 [PP1286]	A (a compound having 10 or more and less than 20 is denoted as A)	AA (a compound having 20 or more is denoted as AA)
2.3	CC[C@H](C)[C@@H]1NC(=O)[C@H](CC(C)C)N(C)C(=O)C[C@@H](C(=O)N(C)C)N(C)C(=O)[C@H](C2CCCC2)N(C)C(=O)C2(CC(C)(C)C2)NC(=O)[C@@H]2C[C@@H](F)CN2C(=O)[C@H](CCc2cc(F)c(C(F)(F)F)c(F)c2)NC(=O)CN(C)C(=O)[C@H](Cc2ccc(C(F)(F)F)cc2)N2CC/C=C\C[C@@H](C2=O)N(C)C(=O)CN(C)C1=O [PP1566]	A (a compound having 10 or more and less than 20 is denoted as A)	A (a compound having 10 or more and less than 20 is denoted as A)
29.9	CCO[C@@H]1C[C@H]2C(=O)NC3(CCC3)C(=O)N(C)[C@@H](C(CC)CC)C(=O)N(C)[C@H](C(=O)N(C)C)CC(=O)N(C)[C@@H](CC)C(=O)N[C@@H]([C@@H](C)CC)C(=O)N(C)CC(=O)N(C)[C@H]3C/C=C\CCN(C3=O)[C@@H](Cc3ccc(C(F)(F)F)cc3)C(=O)N(C)CC(=O)N[C@@H](CCc3ccc(C(F)(F)F)c(OC)c3)C(=O)N2C1 [PP1207]	A (a compound having 10 or more and less than 20 is denoted as A)	AA (a compound having 20 or more is denoted as AA)
49.4	CCO[C@@H]1C[C@H]2C(=O)NC3(CCC3)C(=O)N(C)[C@@H](C(CC)CC)C(=O)N(C)[C@H](C(=O)N(C)C)CC(=O)N(C)[C@@H](CC(C)C)C(=O)N[C@@H]([C@@H](C)CC)C(=O)N(C)CC(=O)N(C)[C@H]3C/C=C\CCN(C3=O)[C@@H](Cc3ccc(F)cc3C)C(=O)N(C)CC(=O)N[C@@H](CCc3cc(F)c(C(F)(F)F)c(F)c3)C(=O)N2C1 [PP1518]	B (a compound having 3 or more and less than 10 is denoted as B)	A (a compound having 10 or more and less than 20 is denoted as A)
4.2	CC[C@H](C)[C@@H]1NC(=O)[C@H](CC)N(C)C(=O)C[C@@H](C(=O)N2CCOCC2)N(C)C(=O)[C@H](C2CCCC2)N(C)C(=O)C2(CCCC2)NC(=O)[C@@H]2CCCN2C(=O)[C@H](CCc2cc(F)c(C(F)(F)F)c(F)c2)NC(=O)CN(C)C(=O)[C@H](Cc2ccc(C(F)(F)F)cc2)N2C[C@H](C)[C@H](C)C[C@@H](C2=O)N(C)C(=O)CN(C)C1=O [PP1365]	B (a compound having 3 or more and less than 10 is denoted as B)	A (a compound having 10 or more and less than 20 is denoted as A)
66.4	CCO[C@@H]1C[C@H]2C(=O)NC3(CCC3)C(=O)N(C)[C@@H](C3CCCC3)C(=O)N(C)[C@H](C3CCCCC3)CC(=O)N(C)[C@@H](COC)C(=O)N[C@@H]([C@@H](C)CC)C(=O)N(C)CC(=O)N(C)[C@H]3C/C=C\CCN(C3=O)[C@@H](Cc3ccc(C(F)(F)F)cc3)C(=O)N(C)CC(=O)N[C@@H](CCc3cc(F)c(C(F)(F)F)c(F)c3)C(=O)N2C1 [PP1584]	B (a compound having 3 or more and less than 10 is denoted as B)	B (a compound having 3 or more and less than 10 is denoted as B)
386	CCO[C@@H]1C[C@H]2C(=O)NC3(CCC3)C(=O)N(C)[C@@H](C3CCCC3)C(=O)N(C)[C@@H](C(=O)N(C)C)CC(=O)N(C)[C@@H](CC3CCCC3)C(=O)N[C@@H]([C@@H](C)CC)C(=O)N(C)CC(=O)N(C)[C@H]3C/C=C\CCN(C3=O)[C@@H](Cc3ccc(C(F)(F)F)cc3)C(=O)N(C)CC(=O)N[C@@H](CCc3cc(F)c(C(F)(F)F)c(F)c3)C(=O)N2C1 [PP1235]	C (A compound having a KD ratio of 0.1 or more and less than 3 is denoted as C)	B (a compound having 3 or more and less than 10 is denoted as B)
98.7	CCO[C@@H]1C[C@H]2C(=O)NC3(CCC3)C(=O)N(C)[C@@H](C3CCCC3)C(=O)N(C)[C@H](C(=O)N3CCOCC3)CC(=O)N(C)[C@@H](CC3CC3)C(=O)N[C@@H]([C@@H](C)CC)C(=O)N(C)CC(=O)N(C)[C@H]3C/C=C\CCN(C3=O)[C@@H](Cc3ccc(F)cc3C)C(=O)N(C)CC(=O)N[C@@H](CCc3cc(F)c(C(F)(F)F)c(F)c3)C(=O)N2C1 [PP1495]	B (a compound having 3 or more and less than 10 is denoted as B)	A (a compound having 10 or more and less than 20 is denoted as A)
62	CCCCCC[C@H]1C(=O)N[C@@H]([C@@H](C)CC)C(=O)N(C)CC(=O)N(C)[C@H]2C/C=C\CCN(C2=O)[C@@H](Cc2ccc(C(F)(F)F)cc2)C(=O)N(C)CC(=O)N[C@@H](CCc2ccc3sccc3c2)C(=O)N2C[C@H](OCC)C[C@H]2C(=O)NC2(CCC2)C(=O)N(C)[C@@H](C2CCCC2)C(=O)N(C)[C@H](C(=O)N(C)C)CC(=O)N1C [PP1259]	A (a compound having 10 or more and less than 20 is denoted as A)	A (a compound having 10 or more and less than 20 is denoted as A)
34.8	CC[C@H](C)[C@@H]1NC(=O)[C@H](CC2CCC2)N(C)C(=O)C[C@@H](C(=O)N2CCOCC2)N(C)C(=O)[C@H](C2CCCC2)N(C)C(=O)C2(CCC2)NC(=O)[C@@H]2CCCN2C(=O)[C@H](CCc2ccc(C(F)(F)F)c(Cl)c2)NC(=O)CN(C)C(=O)[C@H](Cc2ccc(C(F)(F)F)cc2)N2C[C@H](C)CC[C@@H](C2=O)N(C)C(=O)[C@@H]2CCN2C1=O [PP1345]	B (a compound having 3 or more and less than 10 is denoted as B)	A (a compound having 10 or more and less than 20 is denoted as A)
14	CC[C@H](C)[C@@H]1NC(=O)[C@H](CC)N(C)C(=O)C[C@@H](C(=O)N2CCOCC2)N(C)C(=O)[C@H](C2CCCC2)N(C)C(=O)C2(CCC2)NC(=O)[C@@H]2CCCN2C(=O)[C@H](CCc2cc(F)c(C(F)(F)F)c(F)c2)NC(=O)CN(C)C(=O)[C@H](Cc2ccc(C(F)(F)F)cc2)N2C[C@H](C)[C@H](C)C[C@@H](C2=O)N(C)C(=O)CN(C)C1=O [PP1366]	B (a compound having 3 or more and less than 10 is denoted as B)	A (a compound having 10 or more and less than 20 is denoted as A)
38	CC[C@H](C)[C@@H]1NC(=O)[C@H](CC2CC2)N(C)C(=O)C[C@@H](C(=O)N(C)C)N(C)C(=O)[C@H](C2CCCC2)N(C)C(=O)C2(CC(C)(C)C2)NC(=O)[C@@H]2C[C@@H](C(F)(F)F)CN2C(=O)[C@H](CCc2cc(F)c(C(F)(F)F)c(F)c2)NC(=O)CN(C)C(=O)[C@H](Cc2ccc(C(F)(F)F)cc2)N2CC/C=C\C[C@@H](C2=O)N(C)C(=O)CN(C)C1=O [PP1504]	A (a compound having 10 or more and less than 20 is denoted as A)	A (a compound having 10 or more and less than 20 is denoted as A)
10.2	CCO[C@@H]1C[C@H]2C(=O)NC3(CCC3)C(=O)N(C)[C@@H](C3CCCC3)C(=O)N(C)[C@H](C(=O)N(C)C)CC(=O)N(C)[C@@H](CC(C)C)C(=O)N[C@@H]([C@@H](C)CC)C(=O)N(C)CC(=O)N(C)[C@H]3C/C=C\CCN(C3=O)[C@@H](Cc3ccc(C(F)(F)F)cc3)C(=O)N(C)CC(=O)N[C@@H](CCc3ccc(Cl)c(Cl)c3)C(=O)N2C1 [PP1251]	A (a compound having 10 or more and less than 20 is denoted as A)	AA (a compound having 20 or more is denoted as AA)
